Like-named read-outs stand apart in the source and are kept apart here.
Key:
HBV = assay: HBV-DNA antiviral assay using HepG2.117 cells; assay type: cell-based, HBV genotype D; conditions: HBV DNA inhibition, intracellular HBV DNA by qPCR, HepG2.117 cells, 3 days incubation, read-out: EC50
Method: (§1) The following assay procedure describes the HBV antiviral assay, using HepG2.117 cells, which carry a stably integrated genotype D HBV genome under the control of a Tet-off promoter, and intracellular HBV DNA quantification as endpoint. Cell viability is assessed in parallel by measuring the intracellular ATP content using CellTiter-Glo 2.0 (Promega).
On day 0, HepG2.117 cells (which are maintained in routine cell culture with doxycycline present in the medium at a final concentration of 1 μg/mL) are seeded in 96-well plates (white with clear bottom) at a density of 2.0×10^4 cells/well (0.1 mL/well) in medium without doxycycline to induce pgRNA transcription and subsequent formation of HBV particles. The cells are incubated at 37° C. and 5% CO2.
(§2) On day 1, medium is removed from each well, the test articles are diluted in culture medium without doxcycyline and 100 μL was added to cell culture wells (9 concentrations, 4-fold dilution). For each plate, 6 untreated (merely DMSO) wells are included. The final concentration of DMSO in the culture medium is 2%. Each plate is prepared in duplicate (one for HBV DNA extraction, one for CellTiter-Glo 2.0 measurement). The cells are incubated at 37° C. and 5% CO2 for 3 days.
(§3) On day 4, cell viability is assessed using CellTiter-Glo 2.0 and cell lysates are prepared for HBV DNA extraction and subsequent quantification by qPCR.
Medium is removed from each well and 100 μL of 0.33% NP-40 in H2O was added to each well. Plates are sealed, incubated at 4° C. for 5 mins, vortexed extensively and centrifuged briefly. Next, 35 μL of lysate is added to 65 μL QuickExtract DNA Extraction Solution (Epicentre) in a PCR plate for each well. PCR plate is incubated at 65° C. for 6 mins, 98° C. for 2 mins and finally cooled to 4° C. HBV DNA is then quantified by qPCR with HBV-specific primers and probes as specified in Table 2 using the Bio-Rad SSOAdvanced Universal Probes Supermix on a CFX96 machine (Bio-Rad). The PCR cycle program consisted of 95° C. for 3 mins, followed by 40 cycles at 95° C. for 10 sec and 60° C. for 30 sec.
A DNA standard is prepared by dilution of an IDT gBlock corresponding to the amplicon with concentrations ranging from 10^2 to 10^8 copies/input (i.e., per 4 μL) and used to generate a standard curve by plotting Cq values vs. HBV DNA standard concentration. The quantity of HBV DNA in each sample is determined by interpolating from the standard curve.
(§4) Cell viability is calculated as follows: % Cell viability=(luminescence value of test sample)/(average luminescence value of 2% DMSO control)×100%. HBV DNA inhibition was calculated as follows: 100−(HBV DNA copy number of test sample)/(average HBV DNA copy number of 2% DMSO control)×100%. No normalization to entecavir is required due to the excellent dynamic window of this assay. The CC50, EC50 and EC90 values were determined by dose-response curves fitted using non-linear regression.

HepG2.117 cells = assay: Cell viability by CellTiter-Glo 2.0 (intracellular ATP) in HepG2.117 cells; assay type: cell-based; conditions: CellTiter-Glo 2.0, HepG2.117 cells, 3 days incubation
Method: as §1, §2, §3
(§5) Using the other plates, the cell viability is quantified by CellTiter-Glo 2.0 according to the manufacturer's manual. In brief, 100 μL of reagent solution is added to the culture plates and shaken for 2′. The plates are incubated at rt for 10 min and luminescence signal is subsequently measured on a VarioSkan Lux (ThermoFisher) plate reader.
as §4

[1] = as above; assay type: cell-based; conditions: human, CellTiter-Glo 2.0, HepG2.117 cells, 3 days incubation
Method: as §1, §2, §3, §5, §4

| Compound | EC50 (HBV) | CC50 (HepG2.117 cells) | EC50 (HBV; Hepatitis B virus, 72 h) | CC50 at 3 days [1] |
| --- | --- | --- | --- | --- |
| C=C[C@H](C)Nc1nc2c(c(=O)n1-c1ccc(C(=O)NC)cc1Cl)C[C@@H](C)N(C(=O)c1ccc(Br)c(C(F)(F)F)c1)C2 (atropisomer, axis not shown) [Compound 45, 4-[(6R)-7-[4-bromo-3-(trifluoromethyl)benzoyl]-6-methyl-2-[[(1S)-1-methylallyl]amino]-4-oxo-6,8-dihydro-5H-pyrido[3,4-d]pyrimidin-3-yl]-3-chloro-N-methyl-benzamide] | < 50 nM | 30100 nM | – | – |
| C=C[C@H](C)Nc1nc2c(c(=O)n1-c1cc3ncn(C)c3cc1F)C[C@@H](C)N(C(=O)c1ccc(Br)c(C(F)(F)F)c1)C2 [Compound 32b, (R)-7-(4-bromo-3-(trifluoromethyl)benzoyl)-2-(((S)-but-3-en-2-yl)amino)-3-(6-fluoro-1-methyl-1H-benzo[d]imidazol-5-yl)-6-methyl-5,6,7,8-tetrahydropyrido[3,4-d]pyrimidin-4(3H)-one] | < 50 nM | 21900 nM | – | – |
| C=CC(C)Nc1nc2c(c(=O)n1-c1ccc(-c3[nH]nnc3C)cc1)C[C@@H](C)N(C(=O)c1ccc(Br)c(C(F)(F)F)c1)C2 (single isomer, unassigned) [Compound 3b] | < 50 nM | > 500 nM | – | – |
| C=CC(C)Nc1nc2c(c(=O)n1-c1ccc(C(=O)NC)cc1)C[C@@H](C)N(C(=O)c1ccc(Br)c(C(F)(F)F)c1)C2 (single isomer, unassigned) [Compound 2b] | < 50 nM | > 500 nM | – | – |
| C=CC(C)Nc1nc2c(c(=O)n1-c1ccc(-c3[nH]nnc3C)cc1)C[C@@H](C)N(C(=O)c1ccc(Br)c(C(F)(F)F)c1)C2 (single isomer, unassigned) [Compound 3a] | – | – | < 50 nM | > 500 nM |
| C=C[C@H](C)Nc1nc2c(c(=O)n1-c1ccc(C(=O)NC)cc1Cl)C[C@@H](C)N(C(=O)c1ccc(Br)c(C(F)(F)F)c1)C2 (atropisomer, axis not shown) [Compound 44, 4-[(6R)-7-[4-bromo-3-(trifluoromethyl)benzoyl]-6-methyl-2-[[(1S)-1-methylallyl]amino]-4-oxo-6,8-dihydro-5H-pyrido[3,4-d]pyrimidin-3-yl]-3-chloro-N-methyl-benzamide] | – | – | < 50 nM | > 50000 nM |
| CNC(=O)c1ccc(-n2c(C#CC(C)(C)N)nc3c(c2=O)C[C@@H](C)N(C(=O)c2ccc(Br)c(C(F)(F)F)c2)C3)cc1 [Compound 14, (R)-4-(2-(3-amino-3-methylbut-1-yn-1-yl)-7-(4-bromo-3-(trifluoromethyl)benzoyl)-6-methyl-4-oxo-5,6,7,8-tetrahydropyrido[3,4-d]pyrimidin-3(4H)-yl)-N-methylbenzamide] | – | – | 50 to 500 nM | > 500 nM |
| C=C[C@H](C)Nc1nc2c(c(=O)n1-c1ccc3c(ncn3C)n1)C[C@@H](C)N(C(=O)c1ccc(Br)c(C(F)(F)F)c1)C2 [Compound 40, (6R)-7-[4-bromo-3-(trifluoromethyl)benzoyl]-6-methyl-2-[[(1S)-1-methylallyl]amino]-3-(1-methylimidazo[4,5-b]pyridin-5-yl)-6,8-dihydro-5H-pyrido[3,4-d]pyrimidin-4-one] | – | – | < 50 nM | > 50000 nM |
| C=C[C@H](C)Nc1nc2c(c(=O)n1-c1ccc(OCC(C)O)cc1)C[C@@H](C)N(C(=O)c1ccc(Br)c(C(F)(F)F)c1)C2 (stereo in doubt) [Compound 31, (R)-7-(4-bromo-3-(trifluoromethyl)benzoyl)-2-(((S)-but-3-en-2-yl)amino)-3-(4-((S)-2-hydroxypropoxy)phenyl)-6-methyl-5,6,7,8-tetrahydropyrido[3,4-d]pyrimidin-4(3H)-one] | – | – | < 50 nM | 29600 nM |
| C=C[C@H](C)Nc1nc2c(c(=O)n1-c1cc(Cl)c3c(cnn3C)c1)C[C@@H](C)N(C(=O)c1ccc(Br)c(C(F)(F)F)c1)C2 [Compound 34] | – | – | < 50 nM | 11600 nM |
| C=C[C@H](C)Nc1nc2c(c(=O)n1-c1ccc3c(c1)ncn3CC(F)(F)F)C[C@@H](C)N(C(=O)c1ccc(Br)c(C(F)(F)F)c1)C2 [Compound 35, (6R)-7-[4-bromo-3-(trifluoromethyl)benzoyl]-6-methyl-2-[[(1S)-1-methylallyl]amino]-3-[1-(2,2,2-trifluoroethyl)benzimidazol-5-yl]-6,8-dihydro-5H-pyrido[3,4-d]pyrimidin-4-one] | – | – | < 50 nM | 28500 nM |
| C=C[C@H](C)Nc1nc2c(c(=O)n1-c1cnc(C(=O)NC)c(Cl)c1)C[C@@H](C)N(C(=O)c1ccc(Br)c(C(F)(F)F)c1)C2 [Compound 42, 5-[(6R)-7-[4-bromo-3-(trifluoromethyl)benzoyl]-6-methyl-2-[[(1S)-1-methylallyl]amino]-4-oxo-6,8-dihydro-5H-pyrido[3,4-d]pyrimidin-3-yl]-3-chloro-N-methyl-pyridine-2-carboxamide] | – | – | < 50 nM | > 50000 nM |
| C=C[C@H](C)Nc1nc2c(c(=O)n1-c1ccc(-c3cnn(C)c3)cc1)C[C@@H](C)N(C(=O)c1ccc(Br)c(C(F)(F)F)c1)C2 [Compound 27, (R)-7-(4-bromo-3-(trifluoromethyl)benzoyl)-2-(((S)-but-3-en-2-yl)amino)-6-methyl-3-(4-(1-methyl-1H-pyrazol-4-yl)phenyl)-5,6,7,8-tetrahydropyrido[3,4-d]pyrimidin-4(3H)-one] | – | – | < 50 nM | 22800 nM |
| C=CC(COC)Nc1nc2c(c(=O)n1-c1ccc(C(=O)NC)cc1)C[C@@H](C)N(C(=O)c1ccc(Br)c(C(F)(F)F)c1)C2 (stereo partly drawn) [Compound 16] | – | – | < 50 nM | > 500 nM |
| C=CC(C)Nc1nc2c(c(=O)n1-c1ccc(C(=O)NC)cc1)C[C@@H](C)N(C(=O)c1ccc(Br)c(C(F)(F)F)c1)C2 (single isomer, unassigned) [Compound 2a] | – | – | < 50 nM | > 500 nM |
